Reference: patent publication US20230085307A1, “PYRIDAZINONE COMPOUND AND HERBICIDE” (NISSAN CHEMICAL CORPORATION, priority 2019, published 2023)

Legend:
late watergrass = assay: Test Example 1: herbicidal activity, application before weed generation under submerged conditions (Table 16, symbol A); assay type: in vivo, late watergrass (Echinochloa oryzicola); conditions: 320 g/ha applied herbicide
In short: (§1)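 Emulsion formulation, water-diluted to set dose, was put onto the flooded surface (4 cm depth, alluvial soil) the same day weeds were sown and 2.5-leaf rice transplanted. After 3 weeks at 25-30 °C under glass, each species was rated 0 (≤5% kill) to 5 (≥90% kill).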

Japanese bulrush = assay: Test Example 1: herbicidal activity, application before weed generation under submerged conditions (Table 16, symbol B); assay type: in vivo, Japanese bulrush (Schoenoplectus juncoides); conditions: 320 g/ha applied herbicide
In short: as §1

oval-leafed pondweed = assay: Test Example 1: herbicidal activity, application before weed generation under submerged conditions (Table 16, symbol C); assay type: in vivo, oval-leafed pondweed (Monochoria vaginalis); conditions: 320 g/ha applied herbicide
In short: as §1

barnyard grass [1] = assay: Test Example 3: herbicidal effect by foliage application, Wagner pot (Table 18, symbol H); assay type: in vivo, barnyard grass (Echinochloa crus-galli); conditions: 320 g/ha
In short: (§2)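 Plants were sown in alluvial soil held under 0.1–0.5 cm standing water and grown 14 days in a greenhouse at 25–30 °C. An emulsifiable formulation, water-diluted to the set dose, was then sprayed onto the foliage, and effects were scored three weeks later using previously defined criteria.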

Chinese sprangletop = assay: Test Example 3: herbicidal effect by foliage application, Wagner pot (Table 18, symbol D); assay type: in vivo, chinese sprangletop (Leptochloa chinensis); conditions: 320 g/ha
In short: as §2

rice flat sedge = assay: Test Example 3: herbicidal effect by foliage application, Wagner pot (Table 18, symbol E); assay type: in vivo, rice flat sedge (Cyperus iria); conditions: 320 g/ha
In short: as §2

southern crabgrass [2] = assay: Test Example 4: herbicidal effect by soil treatment (Table 19, symbol F); assay type: in vivo, southern crabgrass (Digitaria ciliaris)
In short: (§3)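 Step 1: sow seeds in sterilized diluvial soil, cover ~1.5 cm. Step 2: spray diluted emulsion onto soil surface at predetermined rate. Step 3: greenhouse, 25–30° C, three weeks. Step 4: grade effect on each plant by earlier criteria.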

green foxtail [3] = assay: Test Example 4: herbicidal effect by soil treatment (Table 19, symbol G); assay type: in vivo, green foxtail (Setaria viridis)
In short: as §3

barnyard grass [4] = assay: Test Example 4: herbicidal effect by soil treatment (Table 19, symbol H); assay type: in vivo, barnyard grass (Echinochloa crus-galli)
In short: as §3

wild oat [5] = assay: Test Example 4: herbicidal effect by soil treatment (Table 19, symbol I); assay type: in vivo, wild oat (Avena fatua)
In short: as §3

blackgrass [6] = assay: Test Example 4: herbicidal effect by soil treatment (Table 19, symbol J); assay type: in vivo, blackgrass (Alopecurus myosuroides)
In short: as §3

Italian ryegrass [7] = assay: Test Example 4: herbicidal effect by soil treatment (Table 19, symbol K); assay type: in vivo, Italian ryegrass (Lolium multiflorum)
In short: as §3

windgrass [8] = assay: Test Example 4: herbicidal effect by soil treatment (Table 19, symbol L); assay type: in vivo, windgrass (Apera spica-venti)
In short: as §3

velvetleaf [9] = assay: Test Example 4: herbicidal effect by soil treatment (Table 19, symbol M); assay type: in vivo, velvetleaf (Abutilon theophrasti)
In short: as §3

redroot pigweed [10] = assay: Test Example 4: herbicidal effect by soil treatment (Table 19, symbol N); assay type: in vivo, redroot pigweed (Amaranthus retroflexus)
In short: as §3

lambsquarters [11] = assay: Test Example 4: herbicidal effect by soil treatment (Table 19, symbol O); assay type: in vivo, lambsquarters (Chenopodium album)
In short: as §3

chickweed [12] = assay: Test Example 4: herbicidal effect by soil treatment (Table 19, symbol P); assay type: in vivo, common chickweed (Stellaria media)
In short: as §3

persian speedwell [13] = assay: Test Example 4: herbicidal effect by soil treatment (Table 19, symbol R); assay type: in vivo, Persian speedwell (Veronica persica)
In short: as §3

southern crabgrass [14] = assay: Test Example 5: herbicidal effect by foliage application, plastic box (Table 20, symbol F); assay type: in vivo, southern crabgrass (Digitaria ciliaris); conditions: foliage application, three weeks after application
In short: (§4)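 Foliar spray test: emulsion formulation diluted in water to a set application rate, sprayed onto 14-day-old plants raised in diluvial soil at 25° C to 30° C under glass. Both herbicidal effect and crop effect rated visually three weeks later.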

green foxtail [15] = assay: Test Example 5: herbicidal effect by foliage application, plastic box (Table 20, symbol G); assay type: in vivo, green foxtail (Setaria viridis); conditions: foliage application, three weeks after application
In short: as §4

barnyard grass [16] = assay: Test Example 5: herbicidal effect by foliage application, plastic box (Table 20, symbol H); assay type: in vivo, barnyard grass (Echinochloa crus-galli); conditions: foliage application, three weeks after application
In short: as §4

wild oat [17] = assay: Test Example 5: herbicidal effect by foliage application, plastic box (Table 20, symbol I); assay type: in vivo, wild oat (Avena fatua); conditions: foliage application, three weeks after application
In short: as §4

blackgrass [18] = assay: Test Example 5: herbicidal effect by foliage application, plastic box (Table 20, symbol J); assay type: in vivo, blackgrass (Alopecurus myosuroides); conditions: foliage application, three weeks after application
In short: as §4

Italian ryegrass [19] = assay: Test Example 5: herbicidal effect by foliage application, plastic box (Table 20, symbol K); assay type: in vivo, Italian ryegrass (Lolium multiflorum); conditions: foliage application, three weeks after application
In short: as §4

windgrass [20] = assay: Test Example 5: herbicidal effect by foliage application, plastic box (Table 20, symbol L); assay type: in vivo, windgrass (Apera spica-venti); conditions: foliage application, three weeks after application
In short: as §4

velvetleaf [21] = assay: Test Example 5: herbicidal effect by foliage application, plastic box (Table 20, symbol M); assay type: in vivo, velvetleaf (Abutilon theophrasti); conditions: foliage application, three weeks after application
In short: as §4

redroot pigweed [22] = assay: Test Example 5: herbicidal effect by foliage application, plastic box (Table 20, symbol N); assay type: in vivo, redroot pigweed (Amaranthus retroflexus); conditions: foliage application, three weeks after application
In short: as §4

lambsquarters [23] = assay: Test Example 5: herbicidal effect by foliage application, plastic box (Table 20, symbol O); assay type: in vivo, lambsquarters (Chenopodium album); conditions: foliage application, three weeks after application
In short: as §4

chickweed [24] = assay: Test Example 5: herbicidal effect by foliage application, plastic box (Table 20, symbol P); assay type: in vivo, common chickweed (Stellaria media); conditions: foliage application, three weeks after application
In short: as §4

persian speedwell [25] = assay: Test Example 5: herbicidal effect by foliage application, plastic box (Table 20, symbol R); assay type: in vivo, Persian speedwell (Veronica persica); conditions: foliage application, three weeks after application
In short: as §4

[26] = amount of applied herbicide 320 g/ha

## CCCC(=O)Oc1c(C)nn(C)c(=O)c1-c1c(-c2ccccc2OCC)sc2ccccc12 [1-012]
Late watergrass
  Herbicidal effect on A: late watergrass (grade 0-5): 3 (Herbicidal rate of 40% or more and less than 70%)
Japanese bulrush
  Herbicidal effect on B: Japanese bulrush (grade 0-5): 1 (Herbicidal rate of 5% or more and less than 20%)
oval-leafed pondweed
  Herbicidal effect on C: oval-leafed pondweed (grade 0-5): 3 (Herbicidal rate of 40% or more and less than 70%)
Barnyard grass [1]
  herbicidal effect on H (barnyard grass), rating 0-5: 5 (Herbicidal rate of 90% or more (almost completely withered))
Chinese sprangletop
  herbicidal effect on D (Chinese sprangletop), rating 0-5: 0 (Herbicidal rate of 5% or less (almost no effect))
Rice flat sedge
  herbicidal effect on E (rice flat sedge), rating 0-5: 5 (Herbicidal rate of 90% or more (almost completely withered))
Southern crabgrass [2]; [26]
  herbicidal effect rating, F: southern crabgrass: 4 (Herbicidal rate of 70% or more and less than 90%)
Green foxtail [3]; [26]
  herbicidal effect rating, G: green foxtail: 5 (Herbicidal rate of 90% or more (almost completely withered))
Barnyard grass [4]; [26]
  herbicidal effect rating, H: barnyard grass: 5 (Herbicidal rate of 90% or more (almost completely withered))
Wild oat [5]; [26]
  herbicidal effect rating, I: wild oat: 1 (Herbicidal rate of 5% or more and less than 20%)
Blackgrass [6]; [26]
  herbicidal effect rating, J: blackgrass: 5 (Herbicidal rate of 90% or more (almost completely withered))
Italian ryegrass [7]; [26]
  herbicidal effect rating, K: Italian ryegrass: 0 (Herbicidal rate of 5% or less (almost no effect))
Windgrass [8]; [26]
  herbicidal effect rating, L: windgrass: 3 (Herbicidal rate of 40% or more and less than 70%)
Velvetleaf [9]; [26]
  herbicidal effect rating, M: velvetleaf: 0 (Herbicidal rate of 5% or less (almost no effect))
Redroot pigweed [10]; [26]
  herbicidal effect rating, N: redroot pigweed: 0 (Herbicidal rate of 5% or less (almost no effect))
Lambsquarters [11]; [26]
  herbicidal effect rating, O: lambsquarters: 0 (Herbicidal rate of 5% or less (almost no effect))
Chickweed [12]; [26]
  herbicidal effect rating, P: chickweed: 0 (Herbicidal rate of 5% or less (almost no effect))
Persian speedwell [13]; [26]
  herbicidal effect rating, R: persian speedwell: 0 (Herbicidal rate of 5% or less (almost no effect))
Southern crabgrass [14]; 320 g/ha
  herbicidal effect grade, F: southern crabgrass: 5 (Herbicidal rate of 90% or more (almost completely withered))
Green foxtail [15]; 320 g/ha
  herbicidal effect grade, G: green foxtail: 5 (Herbicidal rate of 90% or more (almost completely withered))
Barnyard grass [16]; 320 g/ha
  herbicidal effect grade, H: barnyard grass: 5 (Herbicidal rate of 90% or more (almost completely withered))
Wild oat [17]; 320 g/ha
  herbicidal effect grade, I: wild oat: 4 (Herbicidal rate of 70% or more and less than 90%)
Blackgrass [18]; 320 g/ha
  herbicidal effect grade, J: blackgrass: 4 (Herbicidal rate of 70% or more and less than 90%)
Italian ryegrass [19]; 320 g/ha
  herbicidal effect grade, K: Italian ryegrass: 3 (Herbicidal rate of 40% or more and less than 70%)
Windgrass [20]; 320 g/ha
  herbicidal effect grade, L: windgrass: 4 (Herbicidal rate of 70% or more and less than 90%)
Velvetleaf [21]; 320 g/ha
  herbicidal effect grade, M: velvetleaf: 3 (Herbicidal rate of 40% or more and less than 70%)
Redroot pigweed [22]; 320 g/ha
  herbicidal effect grade, N: redroot pigweed: 3 (Herbicidal rate of 40% or more and less than 70%)
Lambsquarters [23]; 320 g/ha
  herbicidal effect grade, O: lambsquarters: 2 (Herbicidal rate of 20% or more and less than 40%)
Chickweed [24]; 320 g/ha
  herbicidal effect grade, P: chickweed: 5 (Herbicidal rate of 90% or more (almost completely withered))
Persian speedwell [25]; 320 g/ha
  herbicidal effect grade, R: persian speedwell: 5 (Herbicidal rate of 90% or more (almost completely withered))

## Cc1nn(C)c(=O)c(-c2c(-c3ccc(OS(C)(=O)=O)cc3)sc3ccccc23)c1O [1-146]
Late watergrass
  Herbicidal effect on A: late watergrass (grade 0-5): 3 (Herbicidal rate of 40% or more and less than 70%)
Japanese bulrush
  Herbicidal effect on B: Japanese bulrush (grade 0-5): 0 (Herbicidal rate of 5% or less (almost no effect))
oval-leafed pondweed
  Herbicidal effect on C: oval-leafed pondweed (grade 0-5): 0 (Herbicidal rate of 5% or less (almost no effect))
Barnyard grass [1]
  herbicidal effect on H (barnyard grass), rating 0-5: 5 (Herbicidal rate of 90% or more (almost completely withered))
Chinese sprangletop
  herbicidal effect on D (Chinese sprangletop), rating 0-5: 2 (Herbicidal rate of 20% or more and less than 40%)
Southern crabgrass [2]; AAH 320 g/ha
  F: southern crabgrass, herbicidal effect rating: 4 (Herbicidal rate of 70% or more and less than 90%)
Green foxtail [3]; AAH 320 g/ha
  G: green foxtail, herbicidal effect rating: 5 (Herbicidal rate of 90% or more (almost completely withered))
Barnyard grass [4]; AAH 320 g/ha
  H: barnyard grass, herbicidal effect rating: 5 (Herbicidal rate of 90% or more (almost completely withered))
Wild oat [5]; AAH 320 g/ha
  I: wild oat, herbicidal effect rating: 0 (Herbicidal rate of 5% or less (almost no effect))
Blackgrass [6]; AAH 320 g/ha
  J: blackgrass, herbicidal effect rating: 0 (Herbicidal rate of 5% or less (almost no effect))
Italian ryegrass [7]; AAH 320 g/ha
  K: Italian ryegrass, herbicidal effect rating: 4 (Herbicidal rate of 70% or more and less than 90%)
Windgrass [8]; AAH 320 g/ha
  L: windgrass, herbicidal effect rating: 0 (Herbicidal rate of 5% or less (almost no effect))
Velvetleaf [9]; AAH 320 g/ha
  M: velvetleaf, herbicidal effect rating: 5 (Herbicidal rate of 90% or more (almost completely withered))
Redroot pigweed [10]; AAH 320 g/ha
  N: redroot pigweed, herbicidal effect rating: 5 (Herbicidal rate of 90% or more (almost completely withered))
Lambsquarters [11]; AAH 320 g/ha
  O: lambsquarters, herbicidal effect rating: 5 (Herbicidal rate of 90% or more (almost completely withered))
Chickweed [12]; AAH 320 g/ha
  P: chickweed, herbicidal effect rating: 4 (Herbicidal rate of 70% or more and less than 90%)
Persian speedwell [13]; AAH 320 g/ha
  R: persian speedwell, herbicidal effect rating: 5 (Herbicidal rate of 90% or more (almost completely withered))
Southern crabgrass [14]; AAH 320 g/ha
  F: southern crabgrass, herbicidal effect: 4 (Herbicidal rate of 70% or more and less than 90%)
Green foxtail [15]; AAH 320 g/ha
  G: green foxtail, herbicidal effect: 5 (Herbicidal rate of 90% or more (almost completely withered))
Barnyard grass [16]; AAH 320 g/ha
  H: barnyard grass, herbicidal effect: 5 (Herbicidal rate of 90% or more (almost completely withered))
Wild oat [17]; AAH 320 g/ha
  I: wild oat, herbicidal effect: 0 (Herbicidal rate of 5% or less (almost no effect))
Blackgrass [18]; AAH 320 g/ha
  J: blackgrass, herbicidal effect: 1 (Herbicidal rate of 5% or more and less than 20%)
Italian ryegrass [19]; AAH 320 g/ha
  K: Italian ryegrass, herbicidal effect: 5 (Herbicidal rate of 90% or more (almost completely withered))
Windgrass [20]; AAH 320 g/ha
  L: windgrass, herbicidal effect: 0 (Herbicidal rate of 5% or less (almost no effect))
Velvetleaf [21]; AAH 320 g/ha
  M: velvetleaf, herbicidal effect: 4 (Herbicidal rate of 70% or more and less than 90%)
Redroot pigweed [22]; AAH 320 g/ha
  N: redroot pigweed, herbicidal effect: 3 (Herbicidal rate of 40% or more and less than 70%)
Lambsquarters [23]; AAH 320 g/ha
  O: lambsquarters, herbicidal effect: 3 (Herbicidal rate of 40% or more and less than 70%)
Chickweed [24]; AAH 320 g/ha
  P: chickweed, herbicidal effect: 5 (Herbicidal rate of 90% or more (almost completely withered))
Persian speedwell [25]; AAH 320 g/ha
  R: persian speedwell, herbicidal effect: 5 (Herbicidal rate of 90% or more (almost completely withered))
